Test [1] deals with Mycobacterium tuberculosis. Kind of test: Antimycobacterial activity against isoniazid, rifampicin and streptomycin-resistant Mycobacterium tuberculosis after 7 days by resazurin method. The test is classed as functional. As to conditions: 168 h. (The colour change of resazurin is a common sign of viable cells or microbes.)
Test [2] relates to Mycobacterium tuberculosis. In words: Antimycobacterial activity against isoniazid, rifampicin and ethambutol-resistant Mycobacterium tuberculosis after 7 days by resazurin method. The test is classed as functional. As to conditions: 168 h.
Test [3] concerns Mycobacterium tuberculosis. Kind of test: Antimycobacterial activity against multidrug-resistant Mycobacterium tuberculosis infected in BALB/c mouse assessed as reduction of bacterial load in lungs at 5 mg/kg/day, intragastrically after 1 month relative to control. The class given is functional, organism-based.

≈ marks a conversion by molar mass, not a printed value. Calls of active or inactive are those of the source. The calls are words filed in the database; no cut-off is given here.

Take `CO[C@H]1/C=C/O[C@@]2(C)Oc3c(C)c(O)c4c(c3C2=O)C2=NC3(CCN(CC(C)C)CC3)N(C(C)=O)C2=C(NC(=O)/C(C)=C\C=C\[C@H](C)[C@H](O)[C@@H](C)[C@@H](O)[C@@H](C)[C@H](OC(C)=O)[C@@H]1C)C4=O`: the MIC in test [1] and in test [2] was more than 10 µg/mL throughout. Also, the outcome in test [3] was Active.
As to `CO[C@H]1/C=C/O[C@@]2(C)Oc3c(C)c(O)c4c(c3C2=O)C2=NC3(CCN(CC(C)C)CC3)NC2=C(NC(=O)/C(C)=C\C=C\[C@H](C)[C@H](O)[C@@H](C)[C@@H](O)[C@@H](C)[C@H](O)[C@@H]1C)C4=O`, the MIC in test [1] and in test [2] was more than 10 µg/mL each time.
With `CCCCCCCCCCCCCCCC(=O)N1C2=C3NC(=O)/C(C)=C\C=C\[C@H](C)[C@H](O)[C@@H](C)[C@@H](O)[C@@H](C)[C@H](OC(C)=O)[C@H](C)[C@@H](OC)/C=C/O[C@@]4(C)Oc5c(C)c(O)c(c(c5C4=O)C2=NC12CCN(CC(C)C)CC2)C3=O`, the MIC in test [1] and in test [2] was more than 10 µg/mL in each case.
For `CO[C@H]1/C=C/O[C@@]2(C)Oc3c(C)c(O)c4c(c3[C@H]2O)C2=NC3(CCN(CC(C)C)CC3)N(C(C)=O)C2=C(NC(=O)/C(C)=C\C=C\[C@H](C)[C@H](O)[C@@H](C)[C@@H](O)[C@@H](C)[C@H](OC(C)=O)[C@@H]1C)C4=O`, the MIC in test [1] and in test [2] was 8 µg/mL (≈ 8.98 µM) in each case.
Consider `CO[C@H]1/C=C/O[C@@]2(C)Oc3c(C)c(O)c4c(c3C2=O)C2=NC3(CCN(CC(C)C)CC3)NC2=C(NC(=O)/C(C)=C\C=C\[C@H](C)[C@H](O)[C@@H](C)[C@@H](O)[C@@H](C)[C@H](OC(C)=O)[C@@H]1C)C4=O` [RIFABUTIN], for which the MIC in test [1] and in test [2] was more than 10 µg/mL each time. Also, the result in test [3] was Active.
For the compound `CO[C@H]1/C=C/O[C@@]2(C)Oc3c(C)c(O)c4c(c3[C@H]2O)C2=NC3(CCN(CC(C)C)CC3)NC2=C(NC(=O)/C(C)=C\C=C\[C@H](C)[C@H](O)[C@@H](C)[C@@H](O)[C@@H](C)[C@H](O)[C@@H]1C)C4=O`, the MIC in test [1] and in test [2] was more than 10 µg/mL in each case.
For the compound `CO[C@H]1/C=C/O[C@@]2(C)Oc3c(C)c(O)c4c(c3[C@H]2O)C2=NC3(CC[N+]([O-])(CC(C)C)CC3)NC2=C(NC(=O)/C(C)=C\C=C\[C@H](C)[C@H](O)[C@@H](C)[C@@H](O)[C@@H](C)[C@H](OC(C)=O)[C@@H]1C)C4=O` (stereo partly drawn), the MIC in test [1] and in test [2] was more than 10 µg/mL each time.
Take `C=CCCCCCCCCC(=O)N1C2=C3NC(=O)/C(C)=C\C=C\[C@H](C)[C@H](O)[C@@H](C)[C@@H](O)[C@@H](C)[C@H](OC(C)=O)[C@H](C)[C@@H](OC)/C=C/O[C@@]4(C)Oc5c(C)c(O)c(c(c5C4=O)C2=NC12CCN(CC(C)C)CC2)C3=O`: the MIC in test [1] and in test [2] was 6 µg/mL (≈ 5.92 µM) in each case. Also, the outcome in test [3] was Active.
As to `CO[C@H]1/C=C/O[C@@]2(C)Oc3c(C)c(O)c4c(c3C2=O)C2=NC3(CC[N+]([O-])(CC(C)C)CC3)NC2=C(NC(=O)/C(C)=C\C=C\[C@H](C)[C@H](O)[C@@H](C)[C@@H](O)[C@@H](C)[C@H](O)[C@@H]1C)C4=O` (stereo partly drawn), the MIC in test [1] and in test [2] was more than 10 µg/mL each time.
Regarding `CO[C@H]1/C=C/O[C@@]2(C)Oc3c(C)c(O)c4c(c3C2=O)C2=NC3(CC[N+]([O-])(CC(C)C)CC3)NC2=C(NC(=O)/C(C)=C\C=C\[C@H](C)[C@H](O)[C@@H](C)[C@@H](O)[C@@H](C)[C@H](OC(C)=O)[C@@H]1C)C4=O` (stereo partly drawn), the MIC in test [1] and in test [2] was more than 10 µg/mL throughout.

For the origin of these results see ChEMBL document CHEMBL1140892, “Synthesis and evaluation of rifabutin analogs against Mycobacterium avium and H(37)Rv, MDR and NRP Mycobacterium tuberculosis” (Bioorg Med Chem, 2009).
